Legend:
[1] = system: Cabbage Looper (Trichloplusia ni, TRIPNI) ("CL"); assay: Insecticidal test for cabbage looper, 128-well diet tray assay; assay type: in vivo; details: Trichoplusia ni, 168 h; 50 μg/cm^2 of test compound on artificial diet; second instar CL larvae; 25° C.; five to seven days; average of eight wells; read-out: CL % Control (or Mortality) rating
Procedure: Insecticidal Test for Cabbage Looper (Trichloplusia ni, TRIPNI) (“CL”)
(§1) Bioassays on cabbage looper (CL; Trichloplusia ni: Lepidoptera) are conducted using a 128-well diet tray assay. One to five second instar CL larvae are placed in each well (3 mL) of the diet tray that had been previously filled with 1 mL of artificial diet to which 50 μg/cm^2 of the test compound (dissolved in 50 μL of 90:10 acetone-water mixture) had been applied (to each of eight wells) and then allowed to dry. Trays are covered with a clear self-adhesive cover, vented to allow gas exchange, and held at 25° C., 14:10 light-dark for five to seven days. Percent mortality is recorded for the larvae in each well; activity in the eight wells is then averaged.

[2] = system: beet armyworm (Spodoptera exigua, LAPHEG) ("BAW"); assay: Insecticidal test for beet armyworm, 128-well diet tray assay; assay type: in vivo; details: 168 h, 50 μg/cm^2 of test compound on artificial diet, second instar BAW larvae, 25° C., five to seven days, average of eight wells, read-out: BAW % Control (or Mortality) rating
Procedure: Insecticidal test for beet armyworm (Spodoptera exigua, LAPHEG) (“BAW”)
as §1, with “beet armyworm (BAW; Spodoptera exigua:” for “cabbage looper (CL; Trichloplusia ni:”, “BAW” for “CL”

Compound	mortality at 50 µg/cm2 [1] [%]	mortality at 50 µg/cm2 [2] [%]
Cc1ccc(C(C)C)c(N2C(=O)CS/C2=N\C(=O)NN(C)C(C)c2ccc(-c3ncn(-c4ccc(OC(F)(F)F)cc4)n3)cc2)c1 (stereo not shown) [A3, (Z)—N-(3-(2-isopropyl-5-methylphenyl)-4-oxothiazolidin-2-ylidene)-2-methyl-2-(1-(4-(1-(4-(trifluoromethoxy)phenyl)-1H-1,2,4-triazol-3-yl)phenyl)ethyl)hydrazine-1-carboxamide]	50 to 100	50 to 100
Cc1ccc(C(C)C)c(N2C(=O)CS/C2=N\C(=O)NN(C)Cc2ccc(-c3ncn(-c4ccc(OC(F)(F)F)cc4)n3)cc2)c1 [A4, (Z)—N-(3-(2-isopropyl-5-methylphenyl)-4-oxothiazolidin-2-ylidene)-2-methyl-2-(4-(1-(4-(trifluoromethoxy)phenyl)-1H-1,2,4-triazol-3-yl)benzyl)hydrazine-1-carboxamide]	50 to 100	50 to 100
CC(NNC(=O)/N=C1\SCC(=O)N1c1cc(Cl)ccc1OC(F)(F)F)c1ccc(-c2ncn(-c3ccc(OC(F)(F)F)cc3)n2)cc1 (stereo not shown) [A5, (Z)—N-(3-(5-chloro-2-(trifluoromethoxy)phenyl)-4-oxothiazolidin-2-ylidene)-2-(1-(4-(1-(4-(trifluoromethoxy)phenyl)-1H-1,2,4-triazol-3-yl)phenyl)ethyl)hydrazine-1-carboxamide]	50 to 100	50 to 100
Cc1ccc(OCC(F)(F)F)c(N2C(=O)CS/C2=N\C(=O)NNC(C)c2ccc(-c3ncn(-c4ccc(OC(F)(F)F)cc4)n3)cc2)c1 (stereo not shown) [A6, (Z)—N-(3-(5-Methyl-2-(2,2,2-trifluoroethoxy)phenyl)-4-oxothiazolidin-2-ylidene)-2-(1-(4-(1-(4-(trifluoromethoxy)phenyl)-1H-1,2,4-triazol-3-yl)phenyl)ethyl)hydrazine-1-carboxamide]	50 to 100	50 to 100
CC(C)c1ccc(Cl)cc1N1C(=O)CS/C1=N\C(=O)NNC(C)c1ccc(-c2ncn(-c3ccc(OC(F)(F)F)cc3)n2)cc1 (stereo not shown) [A8, (Z)—N-(3-(5-Chloro-2-isopropylphenyl)-4-oxothiazolidin-2-ylidene)-2-(1-(4-(1-(4-(trifluoromethoxy)phenyl)-1H-1,2,4-triazol-3-yl)phenyl)ethyl)hydrazine-1-carboxamide]	50 to 100	50 to 100
Cc1ccc(C(C)C)c(N2C(=O)CS/C2=N\C(=O)NNC(C)c2ccc(-c3ncn(-c4ccc(OC(F)(F)F)cc4)n3)cc2)c1 (stereo not shown) [A9, (Z)—N-(3-(2-Isopropyl-5-methylphenyl)-4-oxothiazolidin-2-ylidene)-2-(1-(4-(1-(4-(trifluoromethoxy)phenyl)-1H-1,2,4-triazol-3-yl)phenyl)ethyl)hydrazine-1-carboxamide]	50 to 100	50 to 100
CCCc1ccc(C)cc1N1C(=O)CS/C1=N\C(=O)NOCc1ccc(-c2ncn(-c3ccc(OC(F)(F)F)cc3)n2)cc1 [A10, (Z)-1-(3-(5-methyl-2-propylphenyl)-4-oxothiazolidin-2-ylidene)-3-((4-(1-(4-(trifluoromethoxy)phenyl)-1H-1,2,4-triazol-3-yl)benzyl)oxy)urea]	50 to 100	50 to 100
Cc1ccc(Cl)c(N2C(=O)CS/C2=N\C(=O)NOC(C)c2ccc(-c3ncn(-c4ccc(OC(F)(F)F)cc4)n3)cc2)c1 (stereo not shown) [A11, (Z)-1-(3-(2-Chloro-5-methylphenyl)-4-oxothiazolidin-2-ylidene)-3-(1-(4-(1-(4-(trifluoromethoxy)phenyl)-1H-1,2,4-triazol-3-yl)phenyl)ethoxy)urea]	50 to 100	50 to 100
CCCc1ccc(C)cc1N1C(=O)CS/C1=N\C(=O)NOC(C)c1ccc(-c2ncn(-c3ccc(OC(F)(F)F)cc3)n2)cc1 (stereo not shown) [A12, (Z)-1-(3-(5-Methyl-2-propylphenyl)-4-oxothiazolidin-2-ylidene)-3-(1-(4-(1-(4-(trifluoromethoxy)phenyl)-1H-1,2,4-triazol-3-yl)phenyl)ethoxy)urea]	50 to 100	50 to 100
Cc1ccc(C(F)(F)F)c(N2C(=O)CS/C2=N\C(=O)NOC(C)c2ccc(-c3ncn(-c4ccc(OC(F)(F)F)cc4)n3)cc2)c1 (stereo not shown) [A13, (Z)-1-(3-(5-Methyl-2-(trifluoromethyl)phenyl)-4-oxothiazolidin-2-ylidene)-3-(1-(4-(1-(4-(trifluoromethoxy)phenyl)-1H-1,2,4-triazol-3-yl)phenyl)ethoxy)urea]	50 to 100	50 to 100
COc1ccc(C(C)C)c(N2C(=O)CS/C2=N\C(=O)NOC(C)c2ccc(-c3ncn(-c4ccc(OC(F)(F)F)cc4)n3)cc2)c1 (stereo not shown) [A14, (Z)-1-(3-(2-Isopropyl-5-methoxyphenyl)-4-oxothiazolidin-2-ylidene)-3-(1-(4-(1-(4-(trifluoromethoxy)phenyl)-1H-1,2,4-triazol-3-yl)phenyl)ethoxy)urea]	50 to 100	50 to 100
CCCc1ccc(OC)cc1N1C(=O)CS/C1=N\C(=O)NOC(C)c1ccc(-c2ncn(-c3ccc(OC(F)(F)F)cc3)n2)cc1 (stereo not shown) [A15, (Z)-1-(3-(5-Methoxy-2-propylphenyl)-4-oxothiazolidin-2-ylidene)-3-(1-(4-(1-(4-(trifluoromethoxy)phenyl)-1H-1,2,4-triazol-3-yl)phenyl)ethoxy)urea]	50 to 100	50 to 100
COCc1ccc(C)cc1N1C(=O)CS/C1=N\C(=O)NOC(C)c1ccc(-c2ncn(-c3ccc(OC(F)(F)F)cc3)n2)cc1 (stereo not shown) [A16, (Z)-1-(3-(2-(Methoxymethyl)-5-methylphenyl)-4-oxothiazolidin-2-ylidene)-3-(1-(4-(1-(4-(trifluoromethoxy)phenyl)-1H-1,2,4-triazol-3-yl)phenyl)ethoxy)urea]	50 to 100	50 to 100
Cc1ccc(C(C)C)c(N2C(=O)CS/C2=N\C(=O)NOC(C)c2ccc(-c3ncn(-c4ccc(OC(F)(F)F)cc4)n3)cc2)c1 (stereo not shown) [A17, (Z)-1-(3-(2-Isopropyl-5-methylphenyl)-4-oxothiazolidin-2-ylidene)-3-(1-(4-(1-(4-(trifluoromethoxy)phenyl)-1H-1,2,4-triazol-3-yl)phenyl)ethoxy)urea]	50 to 100	50 to 100
CC(C)c1ccccc1N1C(=O)CS/C1=N\C(=O)NOC(C)c1ccc(-c2ncn(-c3ccc(OC(F)(F)F)cc3)n2)cc1 (stereo not shown) [A18, (Z)-1-(3-(2-Isopropylphenyl)-4-oxothiazolidin-2-ylidene)-3-(1-(4-(1-(4-(trifluoromethoxy)phenyl)-1H-1,2,4-triazol-3-yl)phenyl)ethoxy)urea]	50 to 100	50 to 100
Cc1ccc(OCC(F)(F)F)c(N2C(=O)CS/C2=N\C(=O)NOC(C)c2ccc(-c3ncn(-c4ccc(OC(F)(F)F)cc4)n3)cc2)c1 (stereo not shown) [A19, (Z)-1-(3-(5-Methyl-2-(2,2,2-trifluoroethoxy)phenyl)-4-oxothiazolidin-2-ylidene)-3-(1-(4-(1-(4-(trifluoromethoxy)phenyl)-1H-1,2,4-triazol-3-yl)phenyl)ethoxy)urea]	50 to 100	50 to 100
CC(ONC(=O)/N=C1\SCC(=O)N1c1cc(Cl)ccc1OCC(F)(F)F)c1ccc(-c2ncn(-c3ccc(OC(F)(F)F)cc3)n2)cc1 (stereo not shown) [A20, (Z)-1-(3-(5-Chloro-2-(2,2,2-trifluoroethoxy)phenyl)-4-oxothiazolidin-2-ylidene)-3-(1-(4-(1-(4-(trifluoromethoxy)phenyl)-1H-1,2,4-triazol-3-yl)phenyl)ethoxy)urea]	50 to 100	50 to 100
CC(C)c1ccc(Cl)cc1N1C(=O)CS/C1=N\C(=O)NOC(C)c1ccc(-c2ncn(-c3ccc(OC(F)(F)F)cc3)n2)cc1 (stereo not shown) [A21, (Z)-1-(3-(5-Chloro-2-isopropylphenyl)-4-oxothiazolidin-2-ylidene)-3-(1-(4-(1-(4-(trifluoromethoxy)phenyl)-1H-1,2,4-triazol-3-yl)phenyl)ethoxy)urea]	50 to 100	50 to 100
Cc1ccc(Cl)c(N2C(=O)CS/C2=N\C(=O)NOCc2ccc(-c3ncn(-c4ccc(OC(F)(F)F)cc4)n3)cc2)c1 [A22, (Z)-1-(3-(2-Chloro-5-methylphenyl)-4-oxothiazolidin-2-ylidene)-3-((4-(1-(4-(trifluoromethoxy)phenyl)-1H-1,2,4-triazol-3-yl)benzyl)oxy)urea]	50 to 100	50 to 100
CCCc1ccc(OC)cc1N1C(=O)CS/C1=N\C(=O)NOCc1ccc(-c2ncn(-c3ccc(OC(F)(F)F)cc3)n2)cc1 [A23, (Z)-1-(3-(5-Methoxy-2-propylphenyl)-4-oxothiazolidin-2-ylidene)-3-((4-(1-(4-(trifluoromethoxy)phenyl)-1H-1,2,4-triazol-3-yl)benzyl)oxy)urea]	50 to 100	50 to 100

Source: patent publication US20230203026A1, “PESTICIDAL COMPOSITIONS AND METHODS” (CORTEVA AGRISCIENCE LLC, priority 2017, published 2023)
